Data as given in patent publication US20090191173A1, “Induction Of Neurogenesis And Stem Cell Therapy In Combination With Copolymer 1” (priority 2004, published 2009).

Legend:
[1] = system: EAE mice; test: Proliferation, migration and differentiation of neuronal progenitor cells in EAE mice (BrdU, DCX, NeuN); assay type: in vivo, mouse
Experimental: (xxxix) BrdU. 5-Bromo-2′-deoxyuridine (BrdU, Sigma), a thymidine analog incorporating into the DNA of dividing cells, was injected intraperitoneally (50 mg/kg), either concurrently with GA treatment (once each day), or immediately after completion of GA injections (twice each day).
(xli) Immunohistochemistry. […] Control slides were incubated with secondary antibody alone.
(xliii) Quantification. […] Quantification was performed in coronal sections, in the SVZ starting at the level of the medial septum and 640 μm backward, and in the hippocampal DG (in both blades for BrdU/DCX or in the upper blade for DCX) through its septotemporal axis. Quantification in the RMS was done on sagital sections starting at 1 mm from the median line of the brain and 640 μm laterally. The Results for each brain structure were averaged from 8 unilateral levels per mouse (80 μm apart, 3-4 mice in each treatment group) and are expressed as change fold from naive controls. Quantification of BrdU/NeuN double positive cells in the cortex was performed in areas of 0.15 mm^2, selected at random (10 sections counted/mouse, 3 mice in each treatment group).
(xliv) Statistical analysis. For BrdU and DCX analysis, the mean±SEM (averaged from 8 unilateral levels per mouse, 3-4 mice in each treatment group) was subjected to one-way analysis of variance (ANOVA), followed by Fishers' least significant difference (LSD) at comparison-wise error rate of 0.05, where appropriate. Since control values for BrdU incorporation were reduced as a function of time, results were expressed as change fold from naive controls injected concurrently with BrdU. The number of BrdU/NeuN double-positive cells in the cortex was averaged from 10 sections per mouse (3 mice in each treatment group) and expressed as cells per mm^3.

[2] = system: APP/PS1 Tg mice; test: Hippocampal immunohistochemistry in APP/PS1 Tg mice (Aβ plaques, microglia, NeuN, BrdU, DCX); assay type: in vivo, mouse
Experimental: (xxii) Glatiramer acetate vaccination. Each mouse was subcutaneously injected five times with a total of 100 μg of glatiramer acetate (GA (TV-5010), MW 13.5-18.5 kDa, average 16 kDa, Teva Pharmaceutical Industries Ltd., Petach Tikva, Israel), emulsified in 200 μl PBS×1, from experimental day 0 until day 24, twice during the first week and once a week thereafter.
(xxiv) Administration of BrdU and tissue preparation. BrdU was dissolved by sonication in PBS and injected i.p. into each mouse (50 mg/kg body weight; 1.25 mg BrdU in 200 μl PBS×1). Starting from experimental day 22 after the first GA vaccination, BrdU was injected i.p. twice daily, every 12 h for 2.5 days, to label proliferating cells. Three weeks after the first BrdU injection the mice were deeply anesthetized and perfused transcardially, first with PBS and then with 4% paraformaldehyde. The whole brain was removed, postfixed overnight, and then equilibrated in phosphate-buffered 30% sucrose. Free-floating 30-μm sections were collected on a freezing microtome (Leica SM2000R) and stored at 4° C. prior to immunohistochemistry.
For immunohistochemistry, tissue sections were treated with a permeabilization/blocking solution containing 10% FCS, 2% bovine serum albumin, 1% glycine, and 0.05% Triton X-100 (Sigma-Aldrich, St. Louis). Tissue sections were stained overnight at 4° C. with specified combinations of the following primary antibodies: rat anti-BrdU (1:200; Oxford Biotechnology, Kidlington, Oxfordshire, UK), goat anti-DCX [doublecortin] (1:400; Santa Cruz Biotechnology), and mouse anti-NeuN [neuronal nuclear protein] (1:200; Chemicon, Temecula, Calif.). Secondary antibodies were FITC-conjugated donkey anti-goat, Cy-3-conjugated donkey anti-mouse, and Cy-3- or Cy-5-conjugated donkey anti-rat (1:200; Jackson ImmunoResearch, West Grove, Pa.). For labeling of microglia we used either CD11b (MAC1; 1:50; BD-Pharmingen) or FITC-conjugated Bandeiraea simplicifolia isolectin B4 (IB4, 1:50; Sigma-Aldrich, Rehovot). To detect expression of cell-surface MHC-II proteins we used anti-MHC-II Abs (rat, clone IBL-5/22; 1:50; Chemicon, Temecula, Calif.). To detect expression of human Aβ we used anti-Aβ (human amino-acid residues 1-17) (mouse, clone 6E10, Chemicon, Temecula, Calif.). Expression of IGF-I was detected by goat anti-IGF-I Abs (1:20; R&D Systems). Expression of TNF-α was detected by goat anti-TNF-α Abs (1:100; R&D Systems). T cells were detected with anti-CD3 polyclonal Abs (rabbit, 1:100; DakoCytomation, Calif.). Propidium iodide (1 μg/ml; Molecular Probes, Invitrogen, Carlsbad, Calif.) was used for nuclear staining.
For in-vivo experiments, the number of Aβ^+ plaques and CD11b^+/IB-4^+ microglia in the hippocampus were counted at 300-μm intervals from 6-8 coronal sections (30 μm) from each mouse. Neurogenesis in the DG was evaluated by counting of premature neurons (DCX^+), proliferating cells (BrdU^+), and newly formed mature neurons (BrdU^+/NeuN^+) in six coronal sections (30 μm) from each mouse. Specificity of BrdU^+/NeuN^+ co-expression was assayed using the confocal microscope (LSM 510) in optical sections at 1-μm intervals/. Cell counts, numbers of Aβ^+ plaques, plaque areas, and intensity of NeuN staining per unit area in the DG were evaluated automatically using Image-Pro Plus 4.5 software (Media Cybernetics).

[3] = system: APP/PS1 Tg mice; test: Morris water maze (MWM) in APP/PS1 double-transgenic AD mice; assay type: in vivo, mouse; settings: GA (TV-5010) s.c. vaccination, tested five weeks after first injection
[4] = system: EAE mice; test: Clinical manifestations of MOG 35-55-induced EAE; assay type: in vivo; settings: 5-8 daily s.c. injections 2 mg/mouse; prevention, suppression or delayed suppression
[5] = system: EAE mice
Experimental: GA treatment was applied by 5-8 consecutive daily subcutaneous injections (2 mg/mouse) in different stages of disease [i.e., (1) starting immediately after EAE induction (prevention treatment), (2) starting after appearance of disease manifestations at day 20 (suppression treatment), or (3) starting during the chronic phase 45 days after induction (delayed suppression).
(xl) Perfusion. Animals were deeply anesthetized with Nembutal and perfused transcardially with 2.5% paraformaldehyde. Brains were removed, postfixed in 1% paraformaldehyde and cryoprotected with 15% sucrose solution in PBS. Free-floating sections (16 μm thick) were cut coronally or sagitaly with a sliding microtome (Leica SM 2000r) through the entire brain and collected serially in PBS.
(xli) Immunohistochemistry. To detect BrdU-incorporated cells, sections were denatured in 2M HCl in PBS at 37° C. for 30 min and then neutralized with 0.1M borate buffer (pH 8.5) for 10 min at room temperature. To detect specific cell types, sections were pre-incubated in PBS solution containing 20% serum and 0.5% Triton-X-100 for 1 h, and then incubated overnight at room temperature with primary antibodies. The following primary antibodies were used: goat anti-doublecortin (DCX) C-18 (1:200, Santa Cruz Biotechnology, Santa Cruz, Calif.), mouse anti-NeuN (1:300, Chemicon, Temecula, Calif.), mouse anti-GFAP (1:100, Pharmingen, San Jose, Calif.), rabbit anti-phospho-histone (1:200, Upstate Biotechnology, Charlottesville, Va.), rat anti-BrdU (1:200, Harlan, Indianapolis, Ind.), rat anti-CD11b (1:50, Pharmingen) and chicken anti-BDNF (1:50, Promega, Madison, Wis.). […]
(xlii) Microscopy. Stained sections were examined and photographed by a confocal microscope (Axiovert 100M; Zeiss, Oberkochen, Germany), or by a fluorescence microscope (E600; Nikon, Tokyo, Japan), equipped with Plan Fluor objectives connected to CCD camera (DMX1200F, Nikon). Digital images were collected and analyzed using Image Pro+software. […]

[6] = EAE+GA mice, one month after completion of GA treatment
[7] = GA vaccinated vs untreated Tg mice

glatiramer acetate [GA]
migration of neuronal progenitors outside the RMS ([1]; EAE mice treated with GA): migration into a region corresponding to the lateral cortical stream (LCS)
neuronal proliferation in the hippocampus (BrdU incorporation, DCX expression) ([1]; EAE+GA mice): increased proliferation
BDNF expression by migrating DCX+ cells ([1]; EAE+GA mice, nucleus accumbens and hippocampus): manifested extensive expression of BDNF
BrdU+/NeuN+ cells as share of all NeuN+ cells in the cortex [1, 6]: 1.3%
BrdU+/NeuN+ double-labeled cells in the cortex [1, 6]: 128±46 /mm^3
progenitors migrating to lesions ([1]; EAE+GA vs EAE mice): much higher
neuronal proliferation in the SVZ ([1]; EAE+GA vs untreated EAE mice and controls): augmented neuronal proliferation in the SVZ
BrdU or DCX expression in SVZ and DG ([1]; GA injection to naive mice (without EAE)): did not result in significant elevation
BrdU expression in the RMS, increase over EAE mice ([1]; GA on days 20-25 (suppression)): 2.2 fold
BrdU expression in the RMS, increase over control ([1]; GA on days 20-25 (suppression)): 7.8 fold
DCX expression in the RMS, increase over EAE mice ([1]; GA on days 20-25 (suppression)): 1.6 fold
DCX expression in the RMS, increase over control ([1]; GA on days 20-25 (suppression)): 2.6 fold
mobilization of progenitors into the RMS ([1]; injection of GA alone (no EAE)): enhanced mobilization of progenitors into the RMS, but to a lower extent
increase of new neurons in the cortex over EAE mice ([1]; one month after completion of GA treatment): 2.6 fold
DCX expression in the SVZ, elevation over EAE and control ([1]; prevention treatment): 4 fold
number of Aβ plaques ([2]; GA (TV-5010) vaccinated vs untreated Tg mice, 6 weeks later): significantly fewer plaques
BrdU+ cells in the dentate gyrus [2, 7]: significantly more BrdU^+ cells
CD11b+ microglia [2, 7]: significantly fewer CD11b^+ microglia
area occupied by the plaques [2, 7]: significantly smaller
staining for NeuN [2, 7]: significantly more intense staining for NeuN
MHC-II expression by microglia ([2]; GA-vaccinated Tg mice): most of the microglia adjacent to residual Aβ^+ plaques expressed MHC-II
DCX+ cells in the DG ([2]; relative to non-Tg littermates): slightly but significantly more
MWM performance (spatial learning/memory) [3]: superior to that of the untreated Tg mice
clinical manifestations of EAE [4]: ameliorated the clinical manifestations of EAE regardless of the stage in which it was administered
MAC-1 expression (microglial activation) ([5]; EAE+GA vs EAE mice): significantly reduced
neuronal damage in brain ([5]; EAE+GA vs EAE mice, prevention or suppression treatment): considerably less damage
neuronal malformations or perivascular infiltrations ([5]; mouse, in vivo): did not find neuronal malformations or perivascular infiltrations
